According to patent publication US20070281992A1, “COMBINATION OF GYRASE B INHIBITORS AND PROTEIN SYNTHESIS INHIBITORS AND USES THEREOF” (priority 2006, published 2007):
Where two headings read alike, the source gives them in different places.

What was measured:
Format in all cases: cell-based
[1] = test system: Methicillin-Susceptible Staphylococcus aureus Isolates; assay: MIC assay (NCCLS broth dilution), MSSA clinical isolates; settings: for MIC: Staphylococcus aureus
Procedure, shortened: (§1)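 MIC is read as the value from NCCLS-standard broth dilution in Mueller Hinton II medium. Each agent spanned 11 two-fold dilutions, with novobiocin paired to tetracycline or minocycline at a 2.5:1 ratio reflecting serum levels.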

[2] = test system: Enterococcus faecalis (ATCC 29212); assay: MIC assay, quality control strain E. faecalis ATCC 29212; settings: ATCC29212, read-out: Minimal Inhibitory Concentration, quality control, E. faecalis ATCC 29212, repeat runs 22FEB06-09MAR06, combinations at 2.5:1
Procedure, shortened: as §1

[3] = test system: Unconfirmed Vancomycin-intermediate Staphylococcus epidermidis Isolates; assay: MIC assay (NCCLS broth dilution), unconfirmed VISE isolates; settings: for MIC: Staphylococcus epidermidis
Procedure, shortened: as §1

CN[C@H](CC(C)C)C(=O)N[C@H]1C(=O)N[C@@H](CC(N)=O)C(=O)N[C@H]2C(=O)N[C@H]3C(=O)N[C@H](C(=O)N[C@H](C(=O)O)c4cc(O)cc(O)c4-c4cc3ccc4O)[C@H](O)c3ccc(c(Cl)c3)Oc3cc2cc(c3O[C@@H]2O[C@H](CO)[C@@H](O)[C@H](O)[C@H]2O[C@H]2C[C@](C)(N)[C@H](O)[C@H](C)O2)Oc2ccc(cc2Cl)[C@H]1O [VA, vancomycin]
MIC Range ([1]; 52 MSSA isolates, Mueller Hinton II Broth, combinations at 2.5:1, given as NB/partner): .5 to 1 µg/mL
MIC ([1]; read-out: Minimal Inhibitory Concentration, MSSA isolate 133, 03MAR06): 0.5 µg/mL
MIC ([1]; read-out: Minimal Inhibitory Concentration, MSSA isolate 134, 03MAR06): 0.5 µg/mL
MIC ([1]; read-out: Minimal Inhibitory Concentration, MSSA isolate 135, 03MAR06): 1 µg/mL
MIC ([1]; read-out: Minimal Inhibitory Concentration, MSSA isolate 753, 22FEB06): 0.5 µg/mL
MIC ([1]; read-out: Minimal Inhibitory Concentration, MSSA isolate 754, 22FEB06): 0.5 µg/mL
MIC ([1]; read-out: Minimal Inhibitory Concentration, MSSA isolate 754, 24FEB06): 0.5 µg/mL
MIC ([1]; read-out: Minimal Inhibitory Concentration, MSSA isolate 755, 22FEB06): 1 µg/mL
MIC ([1]; read-out: Minimal Inhibitory Concentration, MSSA isolate 756, 03MAR06): 0.5 µg/mL
MIC ([1]; read-out: Minimal Inhibitory Concentration, MSSA isolate 779, 22FEB06): 0.5 µg/mL
MIC ([1]; read-out: Minimal Inhibitory Concentration, MSSA isolate 780, 03MAR06): 1 µg/mL
MIC ([1]; read-out: Minimal Inhibitory Concentration, MSSA isolate 781, 03MAR06): 0.5 µg/mL
MIC ([1]; read-out: Minimal Inhibitory Concentration, MSSA isolate 782, 22FEB06): 1 µg/mL
MIC ([1]; read-out: Minimal Inhibitory Concentration, MSSA isolate 783, 22FEB06): 1 µg/mL
MIC ([1]; read-out: Minimal Inhibitory Concentration, MSSA isolate 784, 22FEB06): 0.5 µg/mL
MIC ([1]; read-out: Minimal Inhibitory Concentration, MSSA isolate 785, 22FEB06): 0.5 µg/mL
MIC ([1]; read-out: Minimal Inhibitory Concentration, MSSA isolate 786, 22FEB06): 0.5 µg/mL
MIC ([1]; read-out: Minimal Inhibitory Concentration, MSSA isolate 787, 22FEB06): 0.5 µg/mL
MIC ([1]; read-out: Minimal Inhibitory Concentration, MSSA isolate 788, 22FEB06): 0.5 µg/mL
MIC ([1]; read-out: Minimal Inhibitory Concentration, MSSA isolate 789, 24FEB06): 1 µg/mL
MIC ([1]; read-out: Minimal Inhibitory Concentration, MSSA isolate 790, 24FEB06): 0.5 µg/mL
MIC ([1]; read-out: Minimal Inhibitory Concentration, MSSA isolate 791, 24FEB06): 0.5 µg/mL
MIC ([1]; read-out: Minimal Inhibitory Concentration, MSSA isolate 792, 03MAR06): 0.5 µg/mL
MIC ([1]; read-out: Minimal Inhibitory Concentration, MSSA isolate 793, 24FEB06): 0.5 µg/mL
MIC ([1]; read-out: Minimal Inhibitory Concentration, MSSA isolate 794, 24FEB06): 1 µg/mL
MIC ([1]; read-out: Minimal Inhibitory Concentration, MSSA isolate 994, 22FEB06): 1 µg/mL
MIC ([1]; read-out: Minimal Inhibitory Concentration, MSSA isolate 995, 03MAR06): 1 µg/mL
MIC ([1]; read-out: Minimal Inhibitory Concentration, MSSA isolate 996, 22FEB06): 0.5 µg/mL
MIC ([1]; read-out: Minimal Inhibitory Concentration, MSSA isolate 997, 22FEB06): 1 µg/mL
MIC ([1]; read-out: Minimal Inhibitory Concentration, MSSA isolate 998, 03MAR06): 1 µg/mL
MIC ([1]; read-out: Minimal Inhibitory Concentration, MSSA isolate 999, 22FEB06): 0.5 µg/mL
MIC ([1]; read-out: Minimal Inhibitory Concentration, MSSA isolate 1000, 24FEB06): 1 µg/mL
MIC ([1]; read-out: Minimal Inhibitory Concentration, MSSA isolate 1001, 24FEB06): 1 µg/mL
MIC ([1]; read-out: Minimal Inhibitory Concentration, MSSA isolate 1002, 24FEB06): 0.5 µg/mL
MIC ([1]; read-out: Minimal Inhibitory Concentration, MSSA isolate 1003, 03MAR06): 0.5 µg/mL
MIC ([1]; read-out: Minimal Inhibitory Concentration, MSSA isolate 1005, 24FEB06): 1 µg/mL
MIC ([1]; read-out: Minimal Inhibitory Concentration, MSSA isolate 1006, 24FEB06): 1 µg/mL
MIC ([1]; read-out: Minimal Inhibitory Concentration, MSSA isolate 1007, 24FEB06): 1 µg/mL
MIC ([1]; read-out: Minimal Inhibitory Concentration, MSSA isolate 1008, 24FEB06): 0.5 µg/mL
MIC ([1]; read-out: Minimal Inhibitory Concentration, MSSA isolate 1009, 24FEB06): 0.5 µg/mL
MIC ([1]; read-out: Minimal Inhibitory Concentration, MSSA isolate 1131, 24FEB06): 1 µg/mL
MIC ([1]; read-out: Minimal Inhibitory Concentration, MSSA isolate 1132, 03MAR06): 0.5 µg/mL
MIC ([1]; read-out: Minimal Inhibitory Concentration, MSSA isolate 1133, 24FEB06): 0.5 µg/mL
MIC ([1]; read-out: Minimal Inhibitory Concentration, MSSA isolate 1134, 24FEB06): 0.5 µg/mL
MIC ([1]; read-out: Minimal Inhibitory Concentration, MSSA isolate 1654, 03MAR06): 0.5 µg/mL
MIC ([1]; read-out: Minimal Inhibitory Concentration, MSSA isolate 1656, 03MAR06): 0.5 µg/mL
MIC ([1]; read-out: Minimal Inhibitory Concentration, MSSA isolate 1662, 03MAR06): 0.5 µg/mL
MIC ([1]; read-out: Minimal Inhibitory Concentration, MSSA isolate 1663, 03MAR06): 1 µg/mL
MIC ([1]; read-out: Minimal Inhibitory Concentration, MSSA isolate 1666, 03MAR06): 0.5 µg/mL
MIC ([1]; read-out: Minimal Inhibitory Concentration, MSSA isolate 1667, 03MAR06): 1 µg/mL
MIC ([1]; read-out: Minimal Inhibitory Concentration, MSSA isolate 1668, 03MAR06): 0.5 µg/mL
MIC ([1]; read-out: Minimal Inhibitory Concentration, MSSA isolate 1671, 03MAR06): 1 µg/mL
MIC ([1]; read-out: Minimal Inhibitory Concentration, MSSA isolate 1728, 03MAR06): 1 µg/mL
MIC ([1]; read-out: Minimal Inhibitory Concentration, MSSA isolate 1728, retest 09MAR06): 1 µg/mL
MIC [2]: 2 µg/mL
MIC Range ([3]; 3 unconfirmed VISE isolates, combinations at 2.5:1): 1 to 4 µg/mL
MIC ([3]; read-out: Minimal Inhibitory Concentration, Unconfirmed VISE isolate 2024, 09MAR06): 2 µg/mL
MIC ([3]; read-out: Minimal Inhibitory Concentration, Unconfirmed VISE isolate 2025, 09MAR06): 4 µg/mL
